Measurements from patent US20040162221A1, “Pyrazole derivatives and herbicides containing the same” (IDEMITSU KOSAN CO., LTD., priority 1998, published 2004).

Assays:
green foxtail [1] = assay: Upland pre-emergence treatment test, green foxtail; format: in vivo, green foxtail (Setaria viridis); conditions: pre-emergence soil surface spray, 80 g/ha, 20th day after treatment, greenhouse
Source text: (§1) 97 Parts by weight of talc (trade name: Zeaklite, supplied by Zeaklite Industry) as a carrier, 1.5 parts by weight of alkylarylsulfonic acid salt (trade name: Neoplex, supplied by Kao-Atlas K.K.) as a surfactant and 1.5 parts by weight of a nonionic and anionic surfactant (trade names Sorpol 800A, supplied by Toho Chemical Co., Ltd.) were uniformly pulverized and mixed to prepare a carrier for a wettable powder.
(§2) 90 Parts by weight of the above carrier for a wettable powder and 10 parts by weight of one of the compounds of the present invention were uniformly pulverized and mixed to obtain herbicides. Further, in Comparative Herbicide Examples, comparative herbicides were also prepared from the following compounds (A) and (B) in the same manner.
(§3) Herbicidal efficacy and phytotoxicity to crops were determined on the basis of the ratio of remaining plant weight to plant weight in non-treated plot=(remaining plant weight in treated plot/plant weight in non-treated-plot)×100. The ratings were applied to the following biological tests.
(§4) Seeds of weeds such as velvetleaf, common lambsquaters, redroot pigweed, common ragweed, green foxtail and large crabgrass and seeds of corn were sown in 1/5,000-are Wagner pots filled with upland soil, and covered with upland soil. Then, a predetermined amount of the herbicide prepared in the above (1) was suspended in water, and the suspension was uniformly sprayed onto the soil surface at a rate of 2,000 liters/hectare. Then, the seeds were grown in a greenhouse, and on the 20th day after the treatment, the herbicide was evaluated for herbicidal efficacy and phytotoxicity to corn on the basis of the ratings shown in (2).

large crabgrass [2] = assay: Upland pre-emergence treatment test, large crabgrass; format: in vivo; conditions: pre-emergence soil surface spray, 80 g/ha, 20th day after treatment, greenhouse
Source text: as §1, §2, §3, §4

velvetleaf [3] = assay: Upland post-emergence treatment test, velvetleaf; format: in vivo, velvetleaf (Abutilon theophrasti); conditions: post-emergence spray at 3-4 leaf stage, 80 g/ha, 30th day after treatment, greenhouse
Source text: as §1, §2, §3
(§5) Seeds of weeds velvetleaf, redroot pigweed, common ragweed, green foxtail and large crabgrass and seeds of corn were sown in 1/5,000-are Wagner pots filled with upland soil, and covered with upland soil. The seeds were grown in a greenhouse, and at the stage of 3˜4 leaves of these plants, a predetermined amount of the herbicide prepared in the above (1) was suspended in water, and the suspension was uniformly sprayed onto leaf and stalk portions at a rate of 2,000 liters/hectare. Then, the plants were grown in the greenhouse, and on the 30th day after the treatment, the herbicide was evaluated for herbicidal efficacy and phytotoxicity to the corn on the basis of the ratings shown in (2).

large crabgrass [4] = assay: Upland post-emergence treatment test, large crabgrass; format: in vivo; conditions: post-emergence spray at 3-4 leaf stage, 80 g/ha, 30th day after treatment, greenhouse
Source text: as §1, §2, §3, §5

velvetleaf [5] = assay: Upland pre-emergence treatment test, velvetleaf; format: in vivo, velvetleaf (Abutilon theophrasti); conditions: pre-emergence soil surface spray, 80 g/ha, 20th day after treatment, greenhouse
Source text: as §1, §2, §3, §4

common lambsquaters = assay: Upland pre-emergence treatment test, common lambsquaters; format: in vivo, common lambsquaters (Chenopodium album); conditions: pre-emergence soil surface spray, 80 g/ha, 20th day after treatment, greenhouse
Source text: as §1, §2, §3, §4

green foxtail [6] = assay: Upland post-emergence treatment test, green foxtail; format: in vivo, green foxtail (Setaria viridis); conditions: post-emergence spray at 3-4 leaf stage, 80 g/ha, 30th day after treatment, greenhouse
Source text: as §1, §2, §3, §5

redroot pigweed [7] = assay: Upland pre-emergence treatment test, redroot pigweed; format: in vivo, redroot pigweed (Amaranthus retroflexus); conditions: pre-emergence soil surface spray, 80 g/ha, 20th day after treatment, greenhouse
Source text: as §1, §2, §3, §4

common ragweed [8] = assay: Upland pre-emergence treatment test, common ragweed; format: in vivo, common ragweed (Ambrosia artemisilfolia); conditions: pre-emergence soil surface spray, 80 g/ha, 20th day after treatment, greenhouse
Source text: as §1, §2, §3, §4

common ragweed [9] = assay: Upland post-emergence treatment test, common ragweed; format: in vivo, common ragweed (Ambrosia artemisilfolia); conditions: post-emergence spray at 3-4 leaf stage, 80 g/ha, 30th day after treatment, greenhouse
Source text: as §1, §2, §3, §5

redroot pigweed [10] = assay: Upland post-emergence treatment test, redroot pigweed; format: in vivo, redroot pigweed (Amaranthus retroflexus); conditions: post-emergence spray at 3-4 leaf stage, 80 g/ha, 30th day after treatment, greenhouse
Source text: as §1, §2, §3, §5

corn [11] = assay: Upland post-emergence treatment test, phytotoxicity to corn; format: in vivo; conditions: post-emergence spray at 3-4 leaf stage, 80 g/ha, 30th day after treatment, greenhouse
Source text: as §1, §2, §3, §5

corn [12] = assay: Upland pre-emergence treatment test, phytotoxicity to corn; format: in vivo; conditions: pre-emergence soil surface spray, 80 g/ha, 20th day after treatment, greenhouse
Source text: as §1, §2, §3, §4
Also: ranges in brackets are in %.

| SMILES | Herbicidal Efficacy EE = Green foxtail (green foxtail [1]) | Herbicidal Efficacy FF = Large crabgrass (large crabgrass [2]) | Herbicidal Efficacy AA = Velvetleaf (velvetleaf [3]) | Herbicidal Efficacy FF = Large crabgrass (large crabgrass [4]) | Herbicidal Efficacy AA = Velvetleaf (velvetleaf [5]) | Herbicidal Efficacy BB = Common lambsquaters (common lambsquaters) | Herbicidal Efficacy EE = Green foxtail (green foxtail [6]) | Herbicidal Efficacy CC = Rough Pigweed (redroot pigweed [7]) | Herbicidal Efficacy DD = Common ragweed (common ragweed [8]) | Herbicidal Efficacy DD = Common ragweed (common ragweed [9]) | Herbicidal Efficacy CC = Redroot Pigweed (redroot pigweed [10]) | Phytotoxicity Corn (corn [11]) | Phytotoxicity Corn (corn [12]) |
| --- | --- | --- | --- | --- | --- | --- | --- | --- | --- | --- | --- | --- | --- |
| CCS(=O)(=O)Oc1c(C(=O)c2ccc3c(c2C)C(C)(C)CS3(=O)=O)cnn1C [Compound 3] | 5 (0) | 5 (0) | 5 (0) | 5 (0) | 5 (0) | 5 (0) | 5 (0) | 5 (0) | 5 (0) | 5 (0) | 5 (0) |  |  |
| Cc1c(C(=O)c2cnn(C)c2OS(=O)(=O)C(C)C)ccc2c1C(C)(C)CS2(=O)=O [Compound 5] |  |  | 5 (0) | 5 (0) |  |  | 5 (0) |  |  | 5 (0) | 5 (0) | − (100) |  |
| Cc1c(C(=O)c2cnn(C)c2OS(=O)(=O)C2CC2)ccc2c1C(C)(C)CS2(=O)=O [Compound 6] |  |  | 5 (0) | 5 (0) |  |  | 5 (0) |  |  | 5 (0) | 5 (0) | − (100) |  |
| CCCCS(=O)(=O)Oc1c(C(=O)c2ccc3c(c2C)C(C)(C)CS3(=O)=O)cnn1C [Compound 7] |  |  | 5 (0) | 5 (0) |  |  | 5 (0) |  |  | 5 (0) | 5 (0) | − (100) |  |
| Cc1c(C(=O)c2cnn(C)c2OS(=O)(=O)CC(C)C)ccc2c1C(C)(C)CS2(=O)=O [Compound 8] |  |  | 5 (0) | 5 (0) |  |  | 5 (0) |  |  | 5 (0) | 5 (0) | − (100) |  |
| CCCCCCCCS(=O)(=O)Oc1c(C(=O)c2ccc3c(c2C)C(C)(C)CS3(=O)=O)cnn1C [Compound 12] |  |  | 5 (0) | 5 (0) |  |  | 5 (0) |  |  | 5 (0) | 5 (0) | − (100) |  |
| Cc1c(C(=O)c2cnn(C)c2OS(=O)(=O)CCl)ccc2c1C(C)(C)CS2(=O)=O [Compound 13] |  |  | 5 (0) | 5 (0) |  |  | 5 (0) |  |  | 5 (0) | 5 (0) | − (100) |  |
| Cc1c(C(=O)c2cnn(C)c2OS(=O)(=O)CCCCl)ccc2c1C(C)(C)CS2(=O)=O [Compound 14] |  |  | 5 (0) | 5 (0) |  |  | 5 (0) |  |  | 5 (0) | 5 (0) | − (100) |  |
| Cc1c(C(=O)c2cnn(C)c2OS(=O)(=O)c2ccccc2)ccc2c1C(C)(C)CS2(=O)=O [Compound 15] |  |  | 5 (0) | 5 (0) |  |  | 5 (0) |  |  | 5 (0) | 5 (0) | − (100) |  |
| CCc1ccc(S(=O)(=O)Oc2c(C(=O)c3ccc4c(c3C)C(C)(C)CS4(=O)=O)cnn2C)cc1 [Compound 19] |  |  | 5 (0) | 5 (0) |  |  | 5 (0) |  |  | 5 (0) | 5 (0) | − (100) |  |
| Cc1c(C(=O)c2cnn(C)c2OS(=O)(=O)c2ccc(Cl)cc2)ccc2c1C(C)(C)CS2(=O)=O [Compound 21] |  |  | 5 (0) | 5 (0) |  |  | 5 (0) |  |  | 5 (0) | 5 (0) | − (100) |  |
| Cc1c(C(=O)c2cnn(C)c2OS(=O)(=O)c2ccc(Cl)cc2Cl)ccc2c1C(C)(C)CS2(=O)=O [Compound 24] |  |  | 5 (0) | 5 (0) |  |  | 5 (0) |  |  | 5 (0) | 5 (0) | − (100) |  |
| COc1ccc(S(=O)(=O)Oc2c(C(=O)c3ccc4c(c3C)C(C)(C)CS4(=O)=O)cnn2C)cc1 [Compound 25] |  |  | 5 (0) | 5 (0) |  |  | 5 (0) |  |  | 5 (0) | 5 (0) | − (100) |  |
| Cc1c(C(=O)c2cnn(C)c2OS(=O)(=O)c2ccc([N+](=O)[O-])cc2)ccc2c1C(C)(C)CS2(=O)=O [Compound 26] |  |  | 5 (0) | 5 (0) |  |  | 5 (0) |  |  | 5 (0) | 5 (0) | − (100) |  |
| Cc1cc(C)c(S(=O)(=O)Oc2c(C(=O)c3ccc4c(c3C)C(C)(C)CS4(=O)=O)cnn2C)c(C)c1 [Compound 27] |  |  | 5 (0) | 5 (0) |  |  | 5 (0) |  |  | 5 (0) | 5 (0) | − (100) |  |
| CCC(=O)Oc1c(C(=O)c2ccc3c(c2C)C(C)(C)CS3(=O)=O)cnn1C [Compound 29] |  |  | 5 (0) | 5 (0) |  |  | 5 (0) |  |  | 5 (0) | 5 (0) | − (100) |  |
| CCC(=O)Oc1c(C(=O)c2ccc3c(c2C)C(C)(C)CS3(=O)=O)cnn1C [Compound 30, 5-(1′-methyl-5′-n-propionyloxypyrazol-4′-yl)carbonyl-3,3,4-trimethyl-2,3-dihydrobenzothiophene-1,1-dioxide] | 5 (0) | 5 (0) |  |  | 4 (1-20) | 5 (0) |  | 5 (0) | 5 (0) |  |  |  | − (100) |
| Cc1ccc(C(=O)Oc2c(C(=O)c3ccc4c(c3C)C(C)(C)CS4(=O)=O)cnn2C)cc1 [Compound 42] |  |  | 5 (0) | 5 (0) |  |  | 5 (0) |  |  | 5 (0) | 5 (0) | − (100) |  |
| CC(C)N.Cc1c(C(=O)c2cnn(C)c2O)ccc2c1C(C)(C)CS2(=O)=O [Compound 51] |  |  | 5 (0) | 5 (0) |  |  | 5 (0) |  |  | 5 (0) | 5 (0) | − (100) |  |
